A short description of data set [1]: Ammonium sulphate (AMS) precipitation relative solubility assay (18 A variants). Type of data set: physicochemical. Here is the method: Relative solubility was measured using a recently developed PEG precipitation assay. For all PYY variants the standard assay worked well, and no changes had to be implemented (Fig. 2a). […] Moreover, to ensure that the results stemming from the AMS assay are consistent and reliable, we performed the 18 A experiments twice independently on different days. The results confirmed that they are indeed replicable, and we were therefore confident to use them for the validation of our approach (Supplementary Fig. 3). […] Even at final concentrations of 0.33 mg/mL (instead of 1 mg/mL) most variants remained insoluble. We used ultracentrifugation to determine the relative solubilities of the GLP-1 variants (Table 3). To confirm the reliability of this method we replicated the results on a different day with the same stock solutions (Supplementary Fig. 4).
Aliquots of 1 mg were prepared from the purified and lyophilised stocks. […] Briefly, a precipitant is titrated in increasing concentration to a fixed concentration of protein to induce precipitation of the protein. The samples are incubated for 48 h at 4° after mixing. The samples are centrifuged and the remaining protein concentration is measured in the supernatant using a plate reader. PYY and 18 A variants were dissolved in 10 mM citrate 10 mM phosphate buffer at pH 7 for a final concentration of 3 mg/mL. The assay was run with 50% 6000 PEG for PYY and with 3.8 M AMS for 18 A. To improve throughput, a multichannel robot was employed to measure several peptides at once with the workflow being kept the same as described previously. […] 120 µL of each sample were centrifuged using an OptimaTLX Ultracentrifuge and spinning for 30 min at 500,000 g at 4 °C. The supernatant was removed, and the peptide concentration was measured using a NanoDrop.

For data set [2] the following is noted: cited from earlier work.

Where a SMILES comes first, the peptide text is derived from it. [ ]: non-standard residue; d: D form. Cha = N[C@@H](CC1CCCCC1)C(=O)O; Nle = CCCC[C@H](N)C(=O)O

Turning to `CCCC[C@H](NC(=O)[C@H](CCC(=O)O)NC(=O)[C@H](CCCCN)NC(=O)[C@H](Cc1ccccc1)NC(=O)[C@H](CCCCN)NC(=O)[C@H](CCC(=O)O)NC(=O)[C@H](C)NC(=O)[C@@H](NC(=O)[C@H](CCCCN)NC(=O)[C@H](CC(=O)O)NC(=O)[C@H](Cc1ccc(O)cc1)NC(=O)[C@H](Cc1ccccc1)NC(=O)[C@H](CC1CCCCC1)NC(=O)[C@H](CCCCN)NC(=O)[C@H](Cc1ccccc1)NC(=O)[C@H](Cc1c[nH]c2ccccc12)NC(=O)[C@H](CC(=O)O)NC(C)=O)C(C)C)C(=O)N[C@@H](Cc1ccccc1)C(N)=O` [Compound 18] (Ac-DWFK[Cha]FYDKVAEKFKE[Nle]F-NH2), in data set [1] (18 A variants, pH 7), the “solubility of 18 A variants (in words)” value is “completely insoluble”. In the case of `CCCC[C@H](NC(=O)[C@H](CCCCN)NC(=O)[C@H](CCC(=O)O)NC(=O)[C@H](C)NC(=O)[C@@H](NC(=O)[C@H](CCCCN)NC(=O)[C@H](CC(=O)O)NC(=O)[C@H](Cc1ccc(O)cc1)NC(=O)[C@H](Cc1ccccc1)NC(=O)[C@H](C)NC(=O)[C@H](CCCCN)NC(=O)[C@H](CCCCNC(C)=O)NC(=O)[C@H](Cc1c[nH]c2ccccc12)NC(=O)[C@H](CC(=O)O)NC(C)=O)C(C)C)C(=O)N[C@@H](CCCCN)C(=O)N[C@@H](CCC(=O)O)C(=O)N[C@@H](C)C(=O)N[C@@H](Cc1ccccc1)C(N)=O` [Nac, Nle] (Ac-DWK(Ac)KAFYDKVAEK[Nle]KEAF-NH2), the PEG1/2 in data set [1] (18A variants, Figure 3b) was determined as 2.52. Also, the “Second Run” value in data set [1] (18A variants, precipitation midpoint, second run, Figure S3) is 1.409.

Take “PYY: gut hormone with a length of 36 amino acids”: the half-life entry in data set [2] is given as “approximately 10 minutes”.

(Values after article PMC10656490, “Sequence-based prediction of the intrinsic solubility of peptides containing non-natural amino acids” (Nature Communications, 2023).)
